Legend:
MDS = conditions: cited from earlier work
[1] = Phase 1 trials of Hu5F9-G4 monotherapy; type: in vivo; conditions: Phase 1 trial
human AML = test: nonclinical xenograft models of human AML; type: in vivo; conditions: mice
[2] = pivotal randomized trial leading to azacitidine approval in MDS

Molecule | known CR rate (MDS; azacitidine alone) [%] | CR+PR rate, point estimate (MDS; [2]) [%] | CR+PR rate, upper bound of the 1-sided 95% confidence interval (MDS; [2]) [%] | maximum tolerated dose (MTD) [1] | tolerability [1] | leukemic disease in the peripheral blood and bone marrow (human AML)
Nc1ncn([C@@H]2O[C@H](CO)[C@@H](O)[C@H]2O)c(=O)n1 [azacitidine] | 17.85 | 15.7 | 23.5 | – | – | –
Hu5F9-G4: humanized IgG4 kappa monoclonal antibody targeting human CD47; heavy chain SEQ ID NO: 50, light chain SEQ ID NO: 51 | – | – | – | has not been reached | well tolerated | robust elimination of leukemic disease in the peripheral blood and bone marrow which results in long term remissions in a high percentage of mice treated

— patent US11795223B2, “Combination therapies for treating myelodysplastic syndromes and acute myeloid leukemia” (Forty Seven, Inc., priority 2019, dated 2023)
